Common to all, as to assay: LOEC (log10 uM (lowest observed effect concentration))
Compound in assay [1]: C=CC(=O)OCC(F)(F)C(F)(F)C(F)(F)COC(=O)C=C [1H,1H,5H,5H-Perfluoro-1,5-pentanediol diacrylate]
The procedure:
(§1)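 BioMAP Diversity Plus panel in human primary cell co-cultures, 4 concentrations in duplicate blinded samples. Responses are log10 fold change versus DMSO control, processed with tcpl v2.1.0. A hit is called when responses at any concentration exceed the cutoff (the larger of 3*bmad or log10(1.2)); the lowest observed effect concentration (modl_ga, log10 uM) is reported for hits.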

Compound in assay [2]: FC(F)(F)C(F)(F)C(F)(F)C(F)(F)C(F)(F)C(F)(F)C(F)(F)I [1-Iodopentadecafluoroheptane]
The procedure:
as §1

Compound in assay [3]: O=S(=O)(Cl)C(F)(F)C(F)(F)C(F)(F)C(F)(F)C(F)(F)C(F)(F)C(F)(F)C(F)(F)F [Perfluoro-1-octanesulfonyl chloride]
The procedure:
as §1

Compound in assay [4]: O=C(O)C(F)(F)C(F)(F)C(F)(F)C(F)(F)C(F)(F)C(F)(F)C(F)(F)C(F)(F)C(F)(F)C(F)F [11-H-Perfluoroundecanoic acid]
The procedure:
as §1

Compound in assay [5]: NS(=O)(=O)C(F)(F)C(F)(F)C(F)(F)C(F)(F)C(F)(F)C(F)(F)F [Perfluorohexanesulfonamide]
The procedure: as §1

Compound in assay [6]: COC(=O)C(F)(F)C(F)(F)OC(F)(C(F)(F)F)C(F)(F)OC(F)=C(F)F [Methyl perfluoro(3-(1-ethenyloxypropan-2-yloxy)propanoate)]
The method, then: as §1

Compound in assay [7]: O=S(=O)(O)CCC(F)(F)C(F)(F)C(F)(F)C(F)(F)C(F)(F)C(F)(F)F [6:2 Fluorotelomer sulfonic acid]
The method, then:
as §1

Compound in another assay: NC(=O)C(F)(F)C(F)(F)C(F)(F)C(F)(F)F [Nonafluoropentanamide]
The procedure: as §1

± gives the standard deviation of the averaged measurements.

In the case of MyoF CollagenIII down, the “LOEC (log10 uM)” value in assay [1] amounted to 1.3; in assay [2], 0.845; in assay [3], 1.78; in assay [4] it was 1.3.
Regarding hDFCGF IP10 down, the “LOEC (log10 uM)” value in assay [1] is 0.301; in assay [5], 1.54 ± 0.34; in assay [4], 0.573 ± 0.39; in assay [6], 0.845.
As to BE3C IP10 down, the “LOEC (log10 uM)” value in assay [1] turned out to be 1.54 ± 0.34; in assay [3], 1.3; in assay [5] it was 1.54 ± 0.34; in assay [4], 0.845.
Take LPS IL8 up: the “LOEC (log10 uM)” value was found to be 1.78 in assay [3] and 1.54 ± 0.34 in assay [7].
For the test system BE3C tPA down, the “LOEC (log10 uM)” value was 1.3 in assay [1]; 1.78 in assay [3]; 1.78 in assay [5]; 1.3 in assay [4]; 0.0731 ± 0.32 in assay [6].
Consider BE3C MMP1 up, for which the figures for the “LOEC (log10 uM)” value in assay [5] and in assay [6] were 1.78 and 0.573 ± 0.39, respectively.
Consider BF4T MMP3 up, for which the “LOEC (log10 uM)” value in assay [6] was determined as 0.845.
For the test system IMphg IL10 down, the “LOEC (log10 uM)” value in assay [1] was 1.3; in assay [3], 1.78; in assay [5], 1.78; in assay [4] it was 1.78.
Consider BE3C PAI1 down, for which the results for the “LOEC (log10 uM)” value in assay [3], in assay [5] and in assay [4] were 1.78, 1.54 ± 0.34 and 1.3, respectively.
On to BE3C ITAC down, for which the “LOEC (log10 uM)” value in assay [1] worked out at 1.78; in assay [3], 1.78; in assay [4], 1.3; in assay [6] it was 0.845.
As for BF4T MCP1 down, the “LOEC (log10 uM)” value in assay [1] stood at 1.3; in assay [3], 1.78; in assay [5], 1.78; in assay [4] it was 0.573 ± 0.39.
As for MyoF SRB down, the “LOEC (log10 uM)” value in assay [1] is 1.3; in assay [2], 0.845; in assay [5], 1.78; in assay [4], 1.3.
For the test system MyoF MMP1 up, the “LOEC (log10 uM)” value turned out to be 0.845 in assay [1] and 0.573 ± 0.39 in assay [2].
For the test system IMphg IL1a up, the “LOEC (log10 uM)” value is 1.54 ± 0.34 in assay [5] and 0.845 in assay [6].
As to IMphg IL8 up, the “LOEC (log10 uM)” value in assay [5] is 1.78; in assay [6] it was 0.301.
As for 3C Thrombomodulin down, the “LOEC (log10 uM)” value in the assay with Nonafluoropentanamide is 1.31 ± 0.66.
For the test system MyoF CollagenIV up, the “LOEC (log10 uM)” value in assay [2] turned out to be 0.845; in assay [3], 1.78; in assay [5], 1.3; in assay [4], 1.07 ± 0.32.
For hDFCGF ITAC down, the “LOEC (log10 uM)” value in assay [1] is 0.301; in assay [5] it was 1.78; in assay [4] it was 0.573 ± 0.39; in assay [6], 0.845.
As to MyoF VCAM1 down, the entries for the “LOEC (log10 uM)” value in assay [1], in assay [2] and in assay [4] were 0.845, 0.573 ± 0.39 and 1.3, respectively.
On to BE3C IL8 down, for which the “LOEC (log10 uM)” value in assay [1] turned out to be 1.3; in assay [3], 1.78; in assay [5], 1.3.
As to hDFCGF VCAM1 down, the “LOEC (log10 uM)” value in assay [1] is 0.301; in assay [4] it was 0.801 ± 0.71; in assay [6] it was 0.845.
Consider MyoF CollagenI down, for which the figures for the “LOEC (log10 uM)” value in assay [1], in assay [2] and in assay [4] were 1.3, 0.845 and 1.3, respectively.
Regarding KF3CT IP10 down, the “LOEC (log10 uM)” value in assay [1] was found to be 1.3; in assay [3], 1.78; in assay [5] it was 1.78; in assay [4], 1.3.
On to MyoF ACTA1 down, for which the “LOEC (log10 uM)” value in assay [1] was determined as 0.845; in assay [2], 0.301; in assay [4], 1.54 ± 0.34.
hDFCGF SRB up: the “LOEC (log10 uM)” value in assay [6] is 0.301.
Consider 3C SRB down, for which the “LOEC (log10 uM)” value in assay [1] turned out to be 1.3; in assay [3], 1.78; in assay [5] it was 1.78; in assay [4], 1.78.
Consider BE3C uPAR down, for which the “LOEC (log10 uM)” value came to 1.78 in assay [1], 1.78 in assay [3], 1.78 in assay [5] and 1.3 in assay [4].
In the case of BE3C MMP9 down, the “LOEC (log10 uM)” value is 1.3 in assay [1], 1.78 in assay [3], 1.78 in assay [5] and 1.07 ± 0.32 in assay [4].
